Data on 7 molecules can be found in US10245261B2, “Substituted indol-5-ol derivatives and their therapeutic applications” (NantBioScience, Inc., priority 2013, dated 2019).

Each structure is given as a SMILES string. Where two headings read alike, the source gives them in different places.

One data set addresses Abl (M351T)(h) (Homo sapiens, UniProt P00519, M351T). The data set is described as follows: KinaseProfiler kinase assay. Format: biochemical.
A further data set addresses Abl(T315I)(h) (Homo sapiens, UniProt P00519, T315I). The data set is described as follows: KinaseProfiler kinase assay. In kind it is biochemical.
The next data set concerns the target Abl(Y253F)(h) (Homo sapiens, UniProt P00519, Y253F). As to the kind of experiment: KinaseProfiler kinase assay. In kind it is biochemical.
Another data set concerns the target T1, Aurora-A(h) (Homo sapiens, UniProt O14965).
T1 sequence (O14965 1-403): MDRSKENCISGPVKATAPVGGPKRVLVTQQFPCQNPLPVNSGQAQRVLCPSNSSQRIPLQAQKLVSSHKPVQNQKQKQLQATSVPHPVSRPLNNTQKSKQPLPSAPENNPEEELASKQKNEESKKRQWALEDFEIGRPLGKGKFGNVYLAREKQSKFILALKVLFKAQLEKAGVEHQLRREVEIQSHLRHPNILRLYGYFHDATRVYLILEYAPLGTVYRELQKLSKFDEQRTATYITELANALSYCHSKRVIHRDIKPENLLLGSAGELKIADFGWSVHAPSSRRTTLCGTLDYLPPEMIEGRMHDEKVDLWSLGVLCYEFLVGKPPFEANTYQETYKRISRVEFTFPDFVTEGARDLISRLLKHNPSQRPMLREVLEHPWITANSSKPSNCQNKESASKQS
As to the kind of experiment: KinaseProfiler kinase assay. In kind it is biochemical. As to conditions: for inhibition at 1 µM: read-out: % Inhibition @1 μM Auroro-A. The gist of the method:
(§1)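 Kinase activity is followed by incorporation of 33P from [γ-33P]ATP in 8 mM MOPS pH 7.0 with 10 mM Mg acetate and 0.2 mM EDTA over 40 min at room temperature. Inhibition is scaled between no-kinase and phosphopeptide control wells.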

A further data set concerns the target Ret (V804L)(h) (Homo sapiens, UniProt P07949, V804L). The data set is described as follows: KinaseProfiler kinase assay. Format: biochemical. The gist of the method: as §1
In another data set the target is FGFR3(h) (Homo sapiens, UniProt P22607). The data set is described as follows: KinaseProfiler kinase assay. In kind it is biochemical.
Chain of FGFR3(h) (P22607 23-806): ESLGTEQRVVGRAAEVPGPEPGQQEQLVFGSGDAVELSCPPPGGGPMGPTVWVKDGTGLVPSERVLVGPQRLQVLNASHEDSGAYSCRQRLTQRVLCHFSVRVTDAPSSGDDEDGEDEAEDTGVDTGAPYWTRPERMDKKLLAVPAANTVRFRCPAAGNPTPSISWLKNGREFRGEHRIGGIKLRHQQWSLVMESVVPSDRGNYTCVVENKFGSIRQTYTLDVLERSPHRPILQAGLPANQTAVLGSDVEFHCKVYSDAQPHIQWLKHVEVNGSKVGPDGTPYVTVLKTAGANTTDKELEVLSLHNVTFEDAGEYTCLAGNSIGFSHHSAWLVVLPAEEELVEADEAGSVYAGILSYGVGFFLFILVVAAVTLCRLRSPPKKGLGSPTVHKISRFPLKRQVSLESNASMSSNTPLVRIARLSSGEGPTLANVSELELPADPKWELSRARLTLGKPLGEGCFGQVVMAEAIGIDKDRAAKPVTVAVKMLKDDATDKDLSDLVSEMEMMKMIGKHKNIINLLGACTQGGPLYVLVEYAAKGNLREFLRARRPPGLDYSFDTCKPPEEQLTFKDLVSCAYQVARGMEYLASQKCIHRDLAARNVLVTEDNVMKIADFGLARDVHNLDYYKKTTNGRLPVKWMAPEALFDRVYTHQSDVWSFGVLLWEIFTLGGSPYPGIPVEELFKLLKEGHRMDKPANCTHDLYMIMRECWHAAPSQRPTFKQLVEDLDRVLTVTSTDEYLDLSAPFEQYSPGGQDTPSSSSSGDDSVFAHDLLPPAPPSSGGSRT
The target of the next data set is FGFR4(h) (Homo sapiens, UniProt P22455). As to the kind of experiment: KinaseProfiler kinase assay. Format: biochemical.
Chain of FGFR4(h) (P22455 22-802): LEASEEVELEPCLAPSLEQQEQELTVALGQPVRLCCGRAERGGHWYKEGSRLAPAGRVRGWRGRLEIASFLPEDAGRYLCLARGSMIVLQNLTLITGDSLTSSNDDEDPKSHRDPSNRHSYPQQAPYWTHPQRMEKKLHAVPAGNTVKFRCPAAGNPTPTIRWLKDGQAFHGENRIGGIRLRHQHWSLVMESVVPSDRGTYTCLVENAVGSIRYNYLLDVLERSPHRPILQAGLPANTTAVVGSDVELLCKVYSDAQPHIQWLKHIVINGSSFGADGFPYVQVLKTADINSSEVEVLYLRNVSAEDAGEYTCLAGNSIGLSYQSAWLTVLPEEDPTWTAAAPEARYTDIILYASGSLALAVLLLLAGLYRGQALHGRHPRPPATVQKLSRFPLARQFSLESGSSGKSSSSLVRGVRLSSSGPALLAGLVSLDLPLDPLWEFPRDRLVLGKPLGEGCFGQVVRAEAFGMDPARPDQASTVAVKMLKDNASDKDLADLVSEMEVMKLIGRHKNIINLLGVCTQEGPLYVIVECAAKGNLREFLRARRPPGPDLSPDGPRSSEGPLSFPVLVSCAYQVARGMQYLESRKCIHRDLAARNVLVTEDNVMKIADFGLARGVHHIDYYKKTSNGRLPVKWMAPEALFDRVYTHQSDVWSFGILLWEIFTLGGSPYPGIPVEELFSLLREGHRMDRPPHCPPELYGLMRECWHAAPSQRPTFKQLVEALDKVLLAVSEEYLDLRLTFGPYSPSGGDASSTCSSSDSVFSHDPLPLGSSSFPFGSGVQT
The target in the next data set is Flt1(h) (Homo sapiens, UniProt P17948). As to the kind of experiment: KinaseProfiler kinase assay. Format: biochemical.
Chain of Flt1(h) (P17948 27-1338): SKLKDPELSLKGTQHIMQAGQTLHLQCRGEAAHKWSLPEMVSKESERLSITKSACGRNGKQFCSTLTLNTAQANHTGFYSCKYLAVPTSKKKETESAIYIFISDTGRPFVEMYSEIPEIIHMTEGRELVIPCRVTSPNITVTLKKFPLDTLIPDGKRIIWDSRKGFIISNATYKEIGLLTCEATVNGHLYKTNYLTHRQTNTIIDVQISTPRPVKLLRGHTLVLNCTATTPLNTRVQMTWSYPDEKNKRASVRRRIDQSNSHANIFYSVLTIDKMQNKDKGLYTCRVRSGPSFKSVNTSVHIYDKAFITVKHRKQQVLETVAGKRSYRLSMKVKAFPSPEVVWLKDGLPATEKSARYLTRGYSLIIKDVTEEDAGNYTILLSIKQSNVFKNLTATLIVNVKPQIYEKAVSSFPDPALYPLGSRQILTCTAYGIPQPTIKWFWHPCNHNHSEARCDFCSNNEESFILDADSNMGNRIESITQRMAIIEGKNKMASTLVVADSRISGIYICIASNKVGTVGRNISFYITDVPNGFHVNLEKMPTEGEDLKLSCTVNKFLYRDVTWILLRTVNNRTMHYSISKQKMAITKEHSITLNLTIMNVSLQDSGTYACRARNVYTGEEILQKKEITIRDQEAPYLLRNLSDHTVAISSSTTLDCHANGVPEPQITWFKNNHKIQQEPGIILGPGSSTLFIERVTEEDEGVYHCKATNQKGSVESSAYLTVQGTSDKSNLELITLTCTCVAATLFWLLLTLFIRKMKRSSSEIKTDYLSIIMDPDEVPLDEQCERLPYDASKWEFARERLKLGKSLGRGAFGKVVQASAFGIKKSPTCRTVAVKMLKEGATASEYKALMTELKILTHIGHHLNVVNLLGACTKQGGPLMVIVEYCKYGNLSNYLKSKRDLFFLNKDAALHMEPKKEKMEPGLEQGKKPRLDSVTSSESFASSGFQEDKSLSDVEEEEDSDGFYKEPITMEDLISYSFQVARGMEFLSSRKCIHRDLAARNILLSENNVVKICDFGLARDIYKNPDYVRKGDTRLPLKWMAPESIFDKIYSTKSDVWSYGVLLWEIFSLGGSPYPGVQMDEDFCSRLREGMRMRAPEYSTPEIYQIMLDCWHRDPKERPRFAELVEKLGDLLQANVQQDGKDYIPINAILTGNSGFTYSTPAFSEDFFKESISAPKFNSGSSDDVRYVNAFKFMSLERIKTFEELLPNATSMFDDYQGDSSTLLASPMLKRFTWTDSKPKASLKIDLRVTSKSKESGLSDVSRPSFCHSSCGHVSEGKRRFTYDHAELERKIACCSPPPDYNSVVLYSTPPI
The subject of another data set is K562. As to the kind of experiment: CellTiterBlue cell growth inhibition. Format: cell-based. As to conditions: Homo sapiens; K562, 72 hours. On the procedure:
(§2) This example illustrated the proliferating cell growth inhibition of selected compounds from this invention. To do this, the cells were seeded into fresh Iscove's growth medium at a density of 0.4e6 cells/ml and grown in log phase for 24 hr. Cells were then resuspended in their fresh respective growth media at 0.1e^6 cells/ml and plated into 384 well black, clear-bottom microplates at 36 ul/well. Test compounds and controls were initially dissolved in DMSO at the desired concentration, then serially diluted to the assay buffer. These solutions were added and cells were incubated for 72 hours at 37° C. CellTiterBlue (Promega cat# G7572) was added on the Beckman FX. Plates were returned to the 37° C. CO2 incubator for 4 hr and then fluorescence was determined on the Victor plate reader. Data were processed using Microsoft Excel, and GI50 values were generated using Prism (GraphPad Software, San Diego, Calif.).

Another data set concerns MV4.11. The data set is described as follows: CellTiterBlue cell growth inhibition. Format: cell-based. As to conditions: Homo sapiens; MV4.11, 72 hours. On the procedure: as §2
The test system of data set [1] is human K562 chronic myelogenous leukemia (CML) xenograft. The data set is described as follows: CML xenograft model in female SCID mice. Format: in vivo, mouse. Here is the method:
The objective of the second study was to evaluate antitumor activities of novel multiple-kinase inhibitor NTW-3475 in human K562 chronic myelogenous leukemia (CML) xenograft model in female SCID mice.
Four to six animals were randomly assigned to study groups. Each animal was weighed, and then injected subcutaneously in the left and right flank area with 0.1 ml of 8.0×10^7 K562 cells per mL.
Each test or control animal was on a 5-day on, two-day off for two cycles treatment schedule. Tumor growth was measured with a digital hand held caliper twice weekly (once tumor emerges) prior to the first dosing and then two to three times weekly until euthanized. Animals were weighed prior to tumor cell injection, prior to dosing, two to three times weekly with tumor growth measurements, and prior to euthanasia.
This example illustrated antitumor activities of Compound 10 and 11 in human K562 chronic myelogenous leukemia (CML) xenograft model in female SCID mice.
On the appropriate days, each animal in an appropriate group will receive a specific amount of test article either at 75 or 100 mg/kg, and the dosing volume is 10 ml/kg by oral gavage as indicated. Dosing schedule will be once daily for 10 days (qd×10, 5 days on and 2 days off for 2 cycles).

Data set [2] has as its system TT human Thyroid carcinoma xenograft. The data set is described as follows: Thyroid carcinoma xenograft. In kind it is in vivo, mouse. On the procedure: This example assesses Compound 10, 53 and 88's anti-tumor activity using a SCID mouse xenograft models for TT human Thyroid carcinoma xenograft (FIGS. 65 to 69.)
On the appropriate days, each animal in an appropriate group will receive a specific amount of Compound 10 either at 50 or 100 mg/kg, and the dosing volume is 10 ml/kg by oral gavage as indicated. Dosing schedule will be once daily for 30 days.
On the appropriate days, each animal in an appropriate group will receive a specific amount of Compound 53 either at 50 or 100 mg/kg, and the dosing volume is 10 ml/kg by oral gavage as indicated. Dosing schedule will be once daily for 30 days.
Dosing schedule will be once daily for 30 days.

Setting [3] is: read-out: IC50 (nM) Auroro-A (h).

Chain of Ret (V804L)(h) (P07949 29-1114 V804L): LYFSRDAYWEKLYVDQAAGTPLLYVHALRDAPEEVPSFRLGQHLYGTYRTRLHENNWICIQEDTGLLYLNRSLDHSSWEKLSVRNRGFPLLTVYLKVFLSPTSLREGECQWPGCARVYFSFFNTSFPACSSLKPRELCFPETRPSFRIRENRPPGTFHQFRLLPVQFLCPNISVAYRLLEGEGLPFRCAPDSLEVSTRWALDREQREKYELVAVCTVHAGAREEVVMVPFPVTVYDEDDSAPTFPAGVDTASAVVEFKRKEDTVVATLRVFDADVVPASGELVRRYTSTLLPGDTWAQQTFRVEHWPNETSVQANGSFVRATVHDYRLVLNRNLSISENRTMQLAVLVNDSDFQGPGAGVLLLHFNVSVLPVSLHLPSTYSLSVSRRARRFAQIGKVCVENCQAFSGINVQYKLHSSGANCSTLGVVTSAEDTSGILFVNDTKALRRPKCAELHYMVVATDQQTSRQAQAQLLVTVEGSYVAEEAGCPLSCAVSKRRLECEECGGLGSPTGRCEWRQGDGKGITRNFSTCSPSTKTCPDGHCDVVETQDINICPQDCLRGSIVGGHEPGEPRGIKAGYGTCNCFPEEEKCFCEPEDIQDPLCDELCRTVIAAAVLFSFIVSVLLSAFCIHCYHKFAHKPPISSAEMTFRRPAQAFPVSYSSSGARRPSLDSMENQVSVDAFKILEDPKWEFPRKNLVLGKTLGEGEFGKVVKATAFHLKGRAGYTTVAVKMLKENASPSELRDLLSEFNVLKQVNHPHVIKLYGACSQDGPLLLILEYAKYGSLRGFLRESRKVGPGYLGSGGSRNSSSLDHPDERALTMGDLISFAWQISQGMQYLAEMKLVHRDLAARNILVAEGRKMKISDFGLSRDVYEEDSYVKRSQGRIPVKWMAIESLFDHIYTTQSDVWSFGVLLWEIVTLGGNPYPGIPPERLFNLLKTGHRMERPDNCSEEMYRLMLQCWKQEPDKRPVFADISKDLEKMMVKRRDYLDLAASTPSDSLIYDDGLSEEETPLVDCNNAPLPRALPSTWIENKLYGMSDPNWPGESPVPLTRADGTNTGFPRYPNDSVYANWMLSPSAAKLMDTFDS

In the case of `Cc1cc2c(F)c(Oc3nc(Nc4cc(C5CC5)[nH]n4)cc(N4CCN(C)CC4)n3)ccc2[nH]1` [Compound 10], the inhibition at 0.1 µM at Abl (M351T)(h) was found to be 99%; against Abl(T315I)(h), 101%; at Abl(Y253F)(h), 103%; on Aurora-A(h), 98%; on Ret (V804L)(h), 103%; against FGFR3(h), 100%. The inhibition at 0.1 µM was found to be 88% against FGFR4(h) and 100% against Flt1(h). In addition, at Aurora-A(h), the inhibition at 1 µM is 99%. For the same molecule, the IC50 on Aurora-A(h) (setting [3]) worked out at 2 nM. The GI50 in the data set with K562 and with MV4.11 was 0.19 nM throughout. The anti-tumor effect entry in data set [1] is listed as “strong anti-tumor effect”; in data set [2], “anti-tumor effect”. The body weight change entry in data set [1] was “no body weight lost”.
Regarding `Cc1cc2c(F)c(Oc3nc(Nc4cc(C5CC5)[nH]n4)cc(N4CCNCC4)n3)ccc2[nH]1` [Compound 11, N-(5-cyclopropyl-1H-pyrazol-3-yl)-2-((4-fluoro-2-methyl-1H-indol-5-yl)oxy)-6-(piperazin-1-yl)pyrimidin-4-amine], the inhibition at 0.1 µM at Abl (M351T)(h) was determined as 102%; at Abl(T315I)(h) it was 102%; on Abl(Y253F)(h), 100%; at Aurora-A(h), 99%; against Ret (V804L)(h), 102%; on FGFR3(h), 101%. The inhibition at 0.1 µM on FGFR4(h) stood at 78%; at Flt1(h) it was 100%. In addition, the inhibition at 1 µM on Aurora-A(h) was 100%. The half-inhibitory concentration (IC50) on Aurora-A(h) (setting [3]) was less than 0.1 nM. Besides, the concentration for 50% growth inhibition (GI50) was 0.41 nM with K562 and 0.29 nM in the data set on MV4.11. Further, the anti-tumor effect result in data set [1] is recorded as “strong anti-tumor effect”. Further, in data set [1], the body weight change result is “no body weight lost”.
On to `C/C=C/c1cc(Nc2cc(N3CCN(C)CC3)nc(Oc3ccc4[nH]c(C)cc4c3F)n2)n[nH]1` [Compound 53], for which the 50% inhibitory concentration (IC50) at Abl (M351T)(h) (Abl(M351T)) was found to be 0.7 nM; against Abl(T315I)(h) (Abl(T315I)), 0.5 nM; against Abl(Y253F)(h) (Abl (Y253F)), 0.5 nM; on Aurora-A(h) (Aurora-A, read-out: IC50), 4 nM; on Ret (V804L)(h) (Ret(V804L mutation)) it was 10 nM; on FGFR3(h) (FGFR3), 1 nM. In addition, the half-inhibitory concentration (IC50) against FGFR4(h) (FGFR4) is 13 nM; against Flt1(h) (VEGFR1), 3 nM. Moreover, the inhibition at 1 µM at Aurora-A(h) amounted to 97%. For the same molecule, the GI50 in the data set with K562 worked out at 0.69 nM; with MV4.11, 0.15 nM.
In the case of `C/C=C/c1cc(Nc2cc(N3CCNCC3)nc(Oc3ccc4[nH]c(C)cc4c3F)n2)n[nH]1` [Compound 68], the inhibition at 1 µM at Aurora-A(h) was determined as 99%. Besides, the IC50 at Aurora-A(h) (setting [3]) worked out at 10 nM. Further, the 50% growth inhibitory concentration (GI50) in the data set with K562 came to 0.26 nM; in the data set with MV4.11 it was 0.16 nM.
`Cc1cc2c(F)c(Oc3nc(Nc4cc(C5CC5)[nH]n4)cc(N4CCNCC4)n3)cc(F)c2[nH]1` [Compound 82]: the inhibition at 1 µM at Aurora-A(h) came out at 100%. For the same molecule, the IC50 at Aurora-A(h) (setting [3]) was found to be 4 nM. The values for the GI50 with K562 and in the data set with MV4.11 were 0.31 nM and 0.28 nM, respectively.
Consider `C/C=C/c1cc(Nc2cc(N3CCN(CCO)CC3)nc(Oc3cc(F)c4[nH]c(C)cc4c3F)n2)n[nH]1` [Compound 88], for which the inhibition at 1 µM on Aurora-A(h) was determined as 100%. For the same molecule, the GI50 in the data set on K562 was 0.6 nM; in the data set with MV4.11 it was 0.16 nM. For the same molecule, the anti-tumor effect entry in data set [2] is listed as “Inhibits Tumor Growth”.
On to `C/C=C/c1cc(Nc2cc(N3CCN(C)CC3)nc(Oc3cc(F)c4[nH]c(C)cc4c3F)n2)n[nH]1` [NTW-3456], for which the “kinase inhibition of T315I abl mutant” value on Abl(T315I)(h) is reported as “inhibits”. Further, the anti-tumor effect result in data set [1] and in data set [2] was “significant anti-tumor activity” each time.
